This passage reports Kd results from publication PMC9706657 (2022).

Common to all, as to assay: ITC
Holding throughout (conditions): Na+ 100 mM (NaCl), Mg2+ 5 mM (MgCl2); 5 mM MES, pH 5.5; aptamer on Au nanoparticle (20 µM aptananozyme in cell)

The subject of assay [1] is aptananozyme II ((2)-modified pA-AuNPs) (DNA, aptamer) GTAACAACAGTCAAAAAAAAAAAAAAAAAAAAGACTGTTGTTACCGACGCCAGTTTGAAGGTTCGTTCGCAGGTGTGGAGTGACGTCG
Assay [2] concerns aptananozyme V ((5)-modified pA-AuNPs) (DNA, aptamer) GTAACAACAGTCAAAAAAAAAAAAAAAAAAAAGACTGTTGTTACTGTATGTATGTACGACGCCAGTTTGAAGGTTCGTTCGCAGGTGTGGAGTGACGTCG
In assay [3] the test system is aptananozyme III ((3)-modified pA-AuNPs) (DNA, aptamer) GTAACAACAGTCAAAAAAAAAAAAAAAAAAAAGACTGTTGTTACTGTACGACGCCAGTTTGAAGGTTCGTTCGCAGGTGTGGAGTGACGTCG
The test system of assay [4] is aptananozyme IV ((4)-modified pA-AuNPs) (DNA, aptamer) GTAACAACAGTCAAAAAAAAAAAAAAAAAAAAGACTGTTGTTACTGTATGTACGACGCCAGTTTGAAGGTTCGTTCGCAGGTGTGGAGTGACGTCG
Assay [5] concerns aptananozyme I ((1)-modified pA-AuNPs) (DNA, aptamer) CGACGCCAGTTTGAAGGTTCGTTCGCAGGTGTGGAGTGACGTCGGTAACAACAGTCAAAAAAAAAAAAAAAAAAAAGACTGTTGTTAC

SMILES strings stand for the structures.

For orientation: Kd means the constant that tells how readily two partners part at equilibrium. Regarding `NCCc1ccc(O)c(O)c1`, the Kd in assay [1] is 1.20 ± 0.06 µM; in assay [2] it was 0.93 ± 0.05 µM; in assay [3] it was 0.95 ± 0.04 µM; in assay [4], 0.76 ± 0.03 µM; in assay [5], 1.65 ± 0.03 µM.

In turn, `N[C@@H](Cc1ccc(O)c(O)c1)C(=O)O` showed a Kd in assay [4] of 4.2 µM.

As to `N[C@H](Cc1ccc(O)c(O)c1)C(=O)O`, the Kd in assay [4] was determined as 11.3 µM.
